Legend:
Experiment in all cases: radiometric filter-binding kinase assay
[1] = system: ROCK2 (rat); settings: accession and sequence are those of the human protein
[2] = biological target: CSNK1D (human) (UniProt P48730)
[3] = biological target: TAOK1 (human) (UniProt Q7L7X3)
[4] = biological target: EPHA2 (human) (UniProt P29317)
[5] = biological target: MAP3K1 (human) (UniProt Q13233)
[6] = biological target: NTRK1 (human) (UniProt P04629)
[7] = biological target: CLK2 (human) (UniProt P49760)
[8] = biological target: RPS6KA3 KD1 KD2 (human) (UniProt P51812)
[9] = biological target: STK11 CAB39 STRADA (human) (UniProt Q9Y376+Q7RTN6+Q15831)
[10] = biological target: RIPK2 (human) (UniProt O43353)
[11] = biological target: IRAK4 (human) (UniProt Q9NWZ3)
[12] = biological target: HIPK3 (human) (UniProt Q9H422)
[13] = system: AKT2 (human), P31751 [S474D]
[14] = biological target: MINK1 (human) (UniProt Q8N4C8)
Chain of MINK1 (human) (Q8N4C8 whole entry, looked up): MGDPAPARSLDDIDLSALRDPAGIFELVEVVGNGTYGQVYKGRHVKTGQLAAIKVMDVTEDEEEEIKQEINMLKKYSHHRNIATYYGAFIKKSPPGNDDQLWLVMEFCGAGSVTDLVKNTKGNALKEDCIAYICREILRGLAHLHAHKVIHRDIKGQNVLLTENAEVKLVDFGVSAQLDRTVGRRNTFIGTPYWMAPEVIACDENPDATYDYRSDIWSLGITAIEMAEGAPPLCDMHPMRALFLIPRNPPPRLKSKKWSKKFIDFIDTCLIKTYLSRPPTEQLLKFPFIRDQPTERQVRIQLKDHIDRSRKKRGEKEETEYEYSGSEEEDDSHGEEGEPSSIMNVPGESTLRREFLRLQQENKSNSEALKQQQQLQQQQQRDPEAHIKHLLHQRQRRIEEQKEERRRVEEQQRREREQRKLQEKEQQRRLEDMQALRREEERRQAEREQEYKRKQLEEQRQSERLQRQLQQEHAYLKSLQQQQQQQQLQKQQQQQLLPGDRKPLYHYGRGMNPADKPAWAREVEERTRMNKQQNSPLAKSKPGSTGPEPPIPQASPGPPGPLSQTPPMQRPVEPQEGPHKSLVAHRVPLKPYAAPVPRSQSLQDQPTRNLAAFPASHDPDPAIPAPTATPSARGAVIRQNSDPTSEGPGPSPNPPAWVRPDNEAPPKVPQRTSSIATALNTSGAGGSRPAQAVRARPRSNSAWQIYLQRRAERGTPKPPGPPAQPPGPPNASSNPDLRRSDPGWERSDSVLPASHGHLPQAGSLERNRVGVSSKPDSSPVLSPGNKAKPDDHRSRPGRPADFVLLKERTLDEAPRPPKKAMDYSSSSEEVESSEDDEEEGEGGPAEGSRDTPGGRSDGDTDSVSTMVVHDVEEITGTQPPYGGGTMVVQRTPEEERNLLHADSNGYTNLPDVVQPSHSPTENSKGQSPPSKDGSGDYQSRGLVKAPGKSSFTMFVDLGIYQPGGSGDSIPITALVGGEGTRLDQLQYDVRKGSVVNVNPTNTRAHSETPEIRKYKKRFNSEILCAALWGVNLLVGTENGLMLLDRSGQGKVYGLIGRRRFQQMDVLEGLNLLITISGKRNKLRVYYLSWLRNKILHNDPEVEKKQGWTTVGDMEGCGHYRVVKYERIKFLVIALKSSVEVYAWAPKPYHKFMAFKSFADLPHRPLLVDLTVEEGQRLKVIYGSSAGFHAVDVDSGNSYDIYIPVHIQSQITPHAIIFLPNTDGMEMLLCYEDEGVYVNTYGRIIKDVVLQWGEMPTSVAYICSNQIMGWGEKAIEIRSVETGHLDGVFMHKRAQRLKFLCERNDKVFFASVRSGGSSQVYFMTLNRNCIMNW

[15] = biological target: MAP3K7 TAB1 (human) (UniProt Q15750+O43318)
[16] = biological target: MAPK15 (human) (UniProt Q8TD08)
[17] = biological target: GSK3B (human) (UniProt P49841)
[18] = biological target: MELK (human) (UniProt Q14680)
Chain of MELK (human) (Q14680 whole entry, looked up): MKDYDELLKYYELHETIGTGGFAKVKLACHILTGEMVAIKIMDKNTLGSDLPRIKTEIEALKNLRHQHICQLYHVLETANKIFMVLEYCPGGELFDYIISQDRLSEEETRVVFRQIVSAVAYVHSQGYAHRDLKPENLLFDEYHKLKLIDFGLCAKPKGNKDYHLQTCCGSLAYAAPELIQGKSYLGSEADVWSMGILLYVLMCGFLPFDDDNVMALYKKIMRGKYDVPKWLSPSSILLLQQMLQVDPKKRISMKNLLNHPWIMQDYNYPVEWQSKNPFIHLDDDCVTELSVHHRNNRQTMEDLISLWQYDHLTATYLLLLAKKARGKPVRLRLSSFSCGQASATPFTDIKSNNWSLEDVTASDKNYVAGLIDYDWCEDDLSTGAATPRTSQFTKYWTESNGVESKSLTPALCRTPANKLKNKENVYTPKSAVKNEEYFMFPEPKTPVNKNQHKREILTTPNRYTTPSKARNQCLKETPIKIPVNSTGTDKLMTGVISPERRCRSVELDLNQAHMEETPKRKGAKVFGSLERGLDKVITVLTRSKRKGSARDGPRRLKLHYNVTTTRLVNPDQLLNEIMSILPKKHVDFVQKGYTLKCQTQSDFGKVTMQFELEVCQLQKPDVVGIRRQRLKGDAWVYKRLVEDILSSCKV

[19] = biological target: PRKCZ (human) (UniProt Q05513)
[20] = biological target: MAPK14 (human) (UniProt Q16539)
[21] = biological target: INSR (human) (UniProt P06213); settings: compound 1.0 µM
[22] = biological target: CAMKK2 (human) (UniProt Q96RR4)
[23] = system: LCK (mouse); settings: accession and sequence are those of the human protein
[24] = biological target: CSK (human) (UniProt P41240)
[25] = biological target: JAK2 JH1 JH2 (human) (UniProt O60674)
Chain of JAK2 JH1 JH2 (human) (O60674 whole entry, looked up): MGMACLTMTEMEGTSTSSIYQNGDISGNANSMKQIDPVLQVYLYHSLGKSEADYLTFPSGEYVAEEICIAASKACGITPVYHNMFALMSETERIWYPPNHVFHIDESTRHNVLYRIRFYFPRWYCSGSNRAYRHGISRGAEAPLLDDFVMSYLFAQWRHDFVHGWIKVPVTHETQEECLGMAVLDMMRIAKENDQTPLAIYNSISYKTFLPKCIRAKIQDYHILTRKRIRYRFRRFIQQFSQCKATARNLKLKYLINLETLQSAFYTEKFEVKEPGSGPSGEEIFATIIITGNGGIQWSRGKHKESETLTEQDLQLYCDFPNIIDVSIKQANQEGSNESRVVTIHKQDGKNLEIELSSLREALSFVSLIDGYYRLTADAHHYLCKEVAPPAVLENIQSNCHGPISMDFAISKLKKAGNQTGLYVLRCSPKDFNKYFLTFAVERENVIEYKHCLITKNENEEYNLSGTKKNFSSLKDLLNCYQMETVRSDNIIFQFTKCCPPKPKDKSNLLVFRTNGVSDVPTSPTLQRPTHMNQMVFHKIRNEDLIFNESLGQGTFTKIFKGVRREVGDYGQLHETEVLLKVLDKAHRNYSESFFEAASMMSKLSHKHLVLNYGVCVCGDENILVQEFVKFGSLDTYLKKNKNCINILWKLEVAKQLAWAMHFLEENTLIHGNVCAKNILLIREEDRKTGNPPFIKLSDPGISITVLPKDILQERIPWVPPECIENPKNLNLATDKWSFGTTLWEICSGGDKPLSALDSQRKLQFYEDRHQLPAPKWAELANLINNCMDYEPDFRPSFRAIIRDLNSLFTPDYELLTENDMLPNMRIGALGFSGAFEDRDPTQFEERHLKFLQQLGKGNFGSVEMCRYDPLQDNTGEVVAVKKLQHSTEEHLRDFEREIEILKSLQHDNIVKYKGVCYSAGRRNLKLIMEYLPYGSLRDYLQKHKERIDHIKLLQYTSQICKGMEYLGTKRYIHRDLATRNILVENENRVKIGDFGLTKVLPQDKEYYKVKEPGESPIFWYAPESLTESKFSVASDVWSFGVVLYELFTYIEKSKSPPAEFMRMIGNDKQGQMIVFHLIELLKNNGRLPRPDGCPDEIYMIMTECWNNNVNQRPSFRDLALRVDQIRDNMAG

[26] = biological target: MARK1 (human) (UniProt Q9P0L2)
[27] = biological target: FGFR1 (human) (UniProt P11362)
[28] = biological target: HIPK1 (human) (UniProt Q86Z02)
[29] = biological target: DYRK3 (human) (UniProt O43781)
Chain of DYRK3 (human) (O43781 whole entry, looked up): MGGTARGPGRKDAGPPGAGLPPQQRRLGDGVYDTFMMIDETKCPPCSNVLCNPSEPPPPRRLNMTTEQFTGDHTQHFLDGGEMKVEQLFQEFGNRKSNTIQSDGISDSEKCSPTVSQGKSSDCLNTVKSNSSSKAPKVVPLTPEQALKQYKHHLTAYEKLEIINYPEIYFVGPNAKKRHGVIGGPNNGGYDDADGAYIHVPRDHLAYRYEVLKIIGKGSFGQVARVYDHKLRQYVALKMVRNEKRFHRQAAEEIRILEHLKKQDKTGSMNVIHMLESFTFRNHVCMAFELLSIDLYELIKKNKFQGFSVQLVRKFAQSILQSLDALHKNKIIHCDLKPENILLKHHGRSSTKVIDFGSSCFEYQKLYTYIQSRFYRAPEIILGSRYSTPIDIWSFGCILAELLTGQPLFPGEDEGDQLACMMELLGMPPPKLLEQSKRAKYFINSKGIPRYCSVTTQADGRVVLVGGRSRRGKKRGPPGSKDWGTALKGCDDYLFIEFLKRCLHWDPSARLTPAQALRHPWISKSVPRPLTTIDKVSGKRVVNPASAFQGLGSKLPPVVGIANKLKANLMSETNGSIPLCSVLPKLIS

[30] = biological target: MAPK11 (human) (UniProt Q15759)
[31] = biological target: SRC (human) (UniProt P12931)
[32] = biological target: BRSK1 (human) (UniProt Q8TDC3)
[33] = biological target: FLT1 (human) (UniProt P17948)
[34] = biological target: IGF1R (human) (UniProt P08069)
Chain of IGF1R (human) (P08069 whole entry, looked up): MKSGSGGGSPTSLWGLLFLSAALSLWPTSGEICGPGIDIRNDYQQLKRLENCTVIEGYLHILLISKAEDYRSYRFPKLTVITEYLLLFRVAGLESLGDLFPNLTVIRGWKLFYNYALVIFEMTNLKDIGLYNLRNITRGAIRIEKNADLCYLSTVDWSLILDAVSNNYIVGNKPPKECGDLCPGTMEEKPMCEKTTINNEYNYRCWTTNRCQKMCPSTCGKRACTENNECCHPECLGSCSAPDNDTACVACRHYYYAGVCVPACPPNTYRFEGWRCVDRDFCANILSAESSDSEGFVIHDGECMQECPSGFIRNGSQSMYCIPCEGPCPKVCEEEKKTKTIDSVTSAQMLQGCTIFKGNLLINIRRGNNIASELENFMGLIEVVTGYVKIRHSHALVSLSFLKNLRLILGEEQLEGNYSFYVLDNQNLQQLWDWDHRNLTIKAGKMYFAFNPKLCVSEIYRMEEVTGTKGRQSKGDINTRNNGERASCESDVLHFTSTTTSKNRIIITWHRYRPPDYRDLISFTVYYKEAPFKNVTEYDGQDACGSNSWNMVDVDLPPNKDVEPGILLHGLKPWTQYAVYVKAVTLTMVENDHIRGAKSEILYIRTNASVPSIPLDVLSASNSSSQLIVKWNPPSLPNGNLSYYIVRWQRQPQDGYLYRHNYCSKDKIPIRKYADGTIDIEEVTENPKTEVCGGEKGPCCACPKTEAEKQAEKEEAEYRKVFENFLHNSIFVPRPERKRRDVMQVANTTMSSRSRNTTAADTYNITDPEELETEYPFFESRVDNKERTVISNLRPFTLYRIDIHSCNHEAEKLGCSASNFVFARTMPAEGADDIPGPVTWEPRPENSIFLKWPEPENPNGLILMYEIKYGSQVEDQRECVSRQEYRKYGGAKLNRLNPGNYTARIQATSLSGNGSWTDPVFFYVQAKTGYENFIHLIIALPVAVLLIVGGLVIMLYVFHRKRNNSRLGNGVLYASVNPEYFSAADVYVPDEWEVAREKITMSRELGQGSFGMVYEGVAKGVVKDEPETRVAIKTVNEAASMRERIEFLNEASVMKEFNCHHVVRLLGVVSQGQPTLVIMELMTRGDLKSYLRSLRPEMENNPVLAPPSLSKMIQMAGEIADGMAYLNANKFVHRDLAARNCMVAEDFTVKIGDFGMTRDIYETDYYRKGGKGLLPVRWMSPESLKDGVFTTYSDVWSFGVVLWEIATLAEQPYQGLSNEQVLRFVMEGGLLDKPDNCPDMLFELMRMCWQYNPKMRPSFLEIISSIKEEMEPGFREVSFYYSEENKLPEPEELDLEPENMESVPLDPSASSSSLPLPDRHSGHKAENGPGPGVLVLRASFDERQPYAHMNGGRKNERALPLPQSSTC

CC1=C(CO)C(=O)O[C@@H]([C@@H](C)[C@H]2CC[C@H]3[C@@H]4C[C@H]5O[C@]56[C@@H](O)C=CC(=O)[C@]6(C)C4CC[C@]23C)C1 (some centres undefined)
residual activity ([1]; compound 0.1 µM): 103%
residual activity ([1]; compound 1.0 µM): 107%
residual activity ([1]; compound 10.0 µM): 112%
residual activity ([2]; compound 0.1 µM): 92%
residual activity ([2]; compound 1.0 µM): 103%
residual activity ([2]; compound 10.0 µM): 105%
residual activity ([3]; compound 0.1 µM): 103%
residual activity ([3]; compound 1.0 µM): 113%
residual activity ([3]; compound 10.0 µM): 120%
residual activity ([4]; compound 0.1 µM): 94%
residual activity ([4]; compound 1.0 µM): 93%
residual activity ([4]; compound 10.0 µM): 96%
residual activity ([5]; compound 0.1 µM): 112%
residual activity ([5]; compound 1.0 µM): 115%
residual activity ([5]; compound 10.0 µM): 95%
residual activity ([6]; compound 0.1 µM): 92%
residual activity ([6]; compound 1.0 µM): 110%
residual activity ([6]; compound 10.0 µM): 97%
residual activity ([7]; compound 0.1 µM): 88%
residual activity ([7]; compound 1.0 µM): 102%
residual activity ([7]; compound 10.0 µM): 94%
residual activity ([8]; compound 0.1 µM): 114%
residual activity ([8]; compound 1.0 µM): 98%
residual activity ([8]; compound 10.0 µM): 74%
residual activity ([9]; compound 0.1 µM): 104%
residual activity ([9]; compound 1.0 µM): 111%
residual activity ([9]; compound 10.0 µM): 114%
residual activity ([10]; compound 0.1 µM): 95%
residual activity ([10]; compound 1.0 µM): 108%
residual activity ([10]; compound 10.0 µM): 110%
residual activity ([11]; compound 1.0 µM): 101%
residual activity ([11]; compound 10.0 µM): 79%
residual activity ([12]; compound 0.1 µM): 96%
residual activity ([12]; compound 1.0 µM): 94%
residual activity ([12]; compound 10.0 µM): 58%
residual activity ([13]; compound 0.1 µM): 92%
residual activity ([13]; compound 1.0 µM): 72%
residual activity ([13]; compound 10.0 µM): 10%
residual activity ([14]; compound 0.1 µM): 94%
residual activity ([14]; compound 1.0 µM): 88%
residual activity ([14]; compound 10.0 µM): 81%
residual activity ([15]; compound 0.1 µM): 114%
residual activity ([15]; compound 1.0 µM): 104%
residual activity ([15]; compound 10.0 µM): 109%
residual activity ([16]; compound 1.0 µM): 115%
residual activity ([16]; compound 10.0 µM): 72%
residual activity ([17]; compound 0.1 µM): 114%
residual activity ([17]; compound 1.0 µM): 124%
residual activity ([17]; compound 10.0 µM): 127%
residual activity ([18]; compound 0.1 µM): 98%
residual activity ([18]; compound 1.0 µM): 107%
residual activity ([18]; compound 10.0 µM): 123%
residual activity ([19]; compound 0.1 µM): 103%
residual activity ([19]; compound 1.0 µM): 110%
residual activity ([19]; compound 10.0 µM): 101%
residual activity ([20]; compound 0.1 µM): 101%
residual activity ([20]; compound 1.0 µM): 92%
residual activity ([20]; compound 10.0 µM): 95%
residual activity [21]: 117%
residual activity ([22]; compound 0.1 µM): 115%
residual activity ([22]; compound 1.0 µM): 115%
residual activity ([22]; compound 10.0 µM): 99%
residual activity ([23]; compound 1.0 µM): 111%
residual activity ([23]; compound 10.0 µM): 129%
residual activity ([24]; compound 0.1 µM): 112%
residual activity ([24]; compound 1.0 µM): 109%
residual activity ([24]; compound 10.0 µM): 111%
residual activity ([25]; compound 0.1 µM): 98%
residual activity ([25]; compound 1.0 µM): 98%
residual activity ([25]; compound 10.0 µM): 103%
residual activity ([26]; compound 0.1 µM): 106%
residual activity ([26]; compound 1.0 µM): 115%
residual activity ([26]; compound 10.0 µM): 111%
residual activity ([27]; compound 0.1 µM): 98%
residual activity ([27]; compound 1.0 µM): 97%
residual activity ([27]; compound 10.0 µM): 94%
residual activity ([28]; compound 0.1 µM): 110%
residual activity ([28]; compound 1.0 µM): 112%
residual activity ([28]; compound 10.0 µM): 101%
residual activity ([29]; compound 0.1 µM): 103%
residual activity ([29]; compound 1.0 µM): 101%
residual activity ([29]; compound 10.0 µM): 78%
residual activity ([30]; compound 0.1 µM): 121%
residual activity ([30]; compound 10.0 µM): 128%
residual activity ([31]; compound 0.1 µM): 114%
residual activity ([31]; compound 1.0 µM): 113%
residual activity ([32]; compound 0.1 µM): 106%
residual activity ([32]; compound 1.0 µM): 111%
residual activity ([32]; compound 10.0 µM): 91%
residual activity ([33]; compound 0.1 µM): 120%
residual activity ([33]; compound 10.0 µM): 30%
residual activity ([34]; compound 0.1 µM): 105%
residual activity ([34]; compound 1.0 µM): 123%
residual activity ([34]; compound 10.0 µM): 113%

Source: the kinase profiling compilation of Christmann-Franck et al. (2016)
